Here are results for eight compounds from patent publication US20230035479A1, “METHODS AND COMPOSITIONS FOR REDUCING HAIR GREYING” (President and Fellows of Harvard College, priority 2019, published 2023).

For assay [1], the system named is melanocyte stem cells (MeSCs). The assay can be described thus: MeSC numbers in hair follicles, TRP2 immunofluorescence or membrane GFP tracing. The note with it: for MeSC preservation in RTX-injected animals: topical 5 mg/kg, until 48 hours post RTX injection, full anagen.
Method: For RTX injection, mice received injections of RTX (30-100 μg/kg) in the flank for 1-3 days as described previously [15, 16, 51-56]. […] Control mice were treated with the vehicle only. RTX injection was done either in full anagen (P31-P36) or in 1st telogen (P21). […] Mice were treated for three days (P28-P30). […] RTX was given at Anagen VI (P31˜P36).
The test system of assay [2] is melanocyte stem cells (MeSCs). Put plainly: MeSC proliferation, Phospho-Histone H3 immunofluorescence. The note with it: for MeSC quiescence in RTX-injected animals: topical 5 mg/kg, until 48 hours post RTX injection.
Method: For RTX injection, mice received injections of RTX (30-100 μg/kg) in the flank for 1-3 days as described previously [15, 16, 51-56]. […] Control mice were treated with the vehicle only. RTX injection was done either in full anagen (P31-P36) or in 1st telogen (P21). […] RTX was given at Anagen VI (P31˜P36).
All images were acquired using a Zeiss LSM 880 confocal microscope or Keyence microscope using ×20 or ×40 magnification lenses. Images are presented as Maximum Intensity Projection images. For colocalization analysis, images are presented as a single Z stack.
For the next assay, the system named is C57BL/6J mice. Format: in vivo, mouse.
The next assay has as its system mature melanocytes. Put plainly: Differentiated/mature melanocytes and hair bulb cells, immunofluorescence. Format: in vivo, mouse. The note with it: full anagen; for proliferation of cells in the hair bulb: RTX-injected animals, topical CDK inhibitors. The procedure:
Loss of hair pigmentation can be due to defects in melanin synthesis, loss of differentiated melanocytes, or problems in MeSC maintenance. To understand how stress impacts the melanocyte lineage, RTX was injected into mice in anagen, when both MeSCs and differentiated melanocytes were present but located within distinct compartments—MeSCs were near to the bulge while differentiated melanocytes were at the hair bulb (FIG. 1E). […] These differentiated melanocytes continued to generate pigments, and the hair coat remained black (FIGS. 6F-6G). When hair follicles in the RTX-injected animals entered catagen and telogen, many have lost all MeSCs (FIG. 1E, Telo). Subsequently, when the next round of anagen initiated, differentiated melanocytes were not produced to color new hair shafts, and unpigmented hairs emerged (FIG. 1E, 2nd Ana, FIG. 6H). […] In this case, unpigmented hairs appeared as soon as new hairs emerged in the following anagen (FIGS. 7A-7B). […] MeSCs were also lost or reduced in mice subjected to restraint stress or chronic unpredictable stress (FIG. 7C). Since stress depleted MeSCs, the loss of hair pigmentation in all three conditions was permanent (FIG. 7D).
Quiescence is a key feature of many somatic stem cells. Loss of quiescence has been postulated to cause MeSC loss in Bcl2 mutants. To examine if stress alters MeSCs quiescence, RTX or norepinephrine was injected into mice that had entered full anagen, when MeSCs are normally quiescent. A dramatic increase in the number of proliferating MeSCs was seen within 24 hours after RTX or norepinephrine injection—about 50% of MeSCs became positive for Phospho-Histone H3, an M phase marker (FIG. 4B). This number is in sharp contrast to the MeSC proliferation seen in early anagen (˜6%), the only stage when MeSCs proliferate to self-renew (FIG. 11E).
(§1) Mouse skin samples were fixed using 4% paraformaldehyde (PFA) for 15 minutes at room temperature, washed 6 times with PBS, and immersed in 30% sucrose overnight at 4° C. Samples were then embedded in OCT (Sakura Finetek). 35˜50 μm sections were fixed in 4% paraformaldehyde (PFA) for 2 minutes and washed with PBS and PBST. Slides were then blocked using blocking buffer (5% donkey serum; 1% BSA, 2% cold water fish gelatin in 0.3% Triton in PBS) for 1 hour at room temperature, followed by staining with primary antibodies overnight at 4° C. and secondary antibody for 4 hours at room temperature. For sympathetic nerve density quantification, 90 μm sections were used. EdU was developed for 1 hour using the Click-It reaction according to manufacturer instructions (Thermo Fisher Scientific). TUNEL assay was performed according to manufacturer instructions (Roche). Fontana—Masson staining was performed according to manufacturer instructions (Market Lab ML7255). Antibodies used: TRP2 (Santa Cruz 10451, 1:800), tyrosine hydroxylase (rabbit, Millipore AB152, 1:1000 or sheep, Millipore AB1542, 1:150-1:300), c-Fos (Abcam, 190289, 1:1000), γ-H2AX (Cell Signaling, 9718, 1:400), phospho-histone H3 (rabbit, Cell Signaling Technology 3377S, 1:500), cleaved caspase 3 (rabbit, Cell Signaling Technology 9664S, 1:400), GFP (rabbit, Abcam ab290, 1:1000 or chicken, Ayes labs GFP-1010, 1:200), CD3 (eBioscience 14-0032-81, 1:800), CD11b (eBioscience 14-0112-81, 1:800), Phospho-CREB (Cell Signaling 9198, 1:800), MITF (Abcam ab12039, 1:400).

The target of the next assay is Gq-DREADD (Homo sapiens, UniProt P20309, A239G/Y149C). The assay can be described thus: Sympathetic nerve activation with Gq-DREADD by intradermal CNO.
The test system of another assay is sympathetic neurons. The assay can be described thus: c-FOS immunofluorescence in sympathetic ganglia. Format: in vivo, mouse. The note with it: TH-CreER; Gq-DREADD mice injected with CNO.
Another assay deals with CREB/ATF1. The assay can be described thus: CREB/ATF1 phosphorylation in human primary melanocytes. As to conditions: 10 uM, after 15 minutes. The format is cell-based. On the procedure: (§2) FIG. 14C provides quantification of the proportion of follicles that contain pigmented bulge or outer root sheath cells vs those lacking such pigmented cells outside of the bulb region. Human discarded hair bearing skin was cultured for 3 days with single hairs being isolated and grown in semi solid agarose William E medium with vehicle or norepinephrine (0.1 mM) for 24 hours. The cells were assessed after culture to identify those that were pigmented from those that were not. The presence of pigmented cells indicates senescence of melanocyte stem cells. Signal in vehicle control likely reflects the middle-age of the donor follicles.
(§3) Primary human melanocytes were derived from neonatal foreskin as previously described and cultured in Medium 254 (Invitrogen, Thermo Fisher Scientific). Melanocytes (passages 2 and 4) were starved for 24 hours in HAM's F-10 +1% penicillin/streptomycin/glutamine before adding NE (10 uM).

For a further assay, the target named is ADRB2 on MeSCs (Mus musculus, UniProt P18762). Put plainly: Hair greying after intradermal norepinephrine injection.
For assay [3], the system named is primary human melanocytes. The assay can be described thus: qRT-PCR in cultured primary human melanocytes treated with norepinephrine. Format: cell-based. On the procedure: as §3
The cDNA libraries were synthesized using Superscript IV VILO master mix with ezDNase (Thermo Fisher). Quantitative real time PCR was performed using power SYBR green (Thermo Fisher) in an ABI QuantStudio6 Flex qPCR instrument. Ct values were normalized to an internal control of beta-actin.
(In general: Real-time PCR tracks product formation cycle by cycle.)

Assay [4] has as its system melanocyte stem cells (MeSCs). Put plainly: Apoptosis (active caspase-3, TUNEL) and DNA damage (gamma-H2AX) in MeSCs. Format: in vivo, mouse. The procedure: Radiation causes DNA damage in MeSCs, leading to their differentiation within the niche.
as §1

Another assay has as its system human hair follicles. The assay can be described thus: Cultured human hair follicles, pigmented bulge or outer root sheath cells. The format is cell-based. As to conditions: 24 hours. On the procedure:
as §2
Hair follicles from discarded scalp skin of […] was cultured for 3 days. Single hairs were isolated and grown in a semi agarose William E medium with vehicle, norepinephrine (NE) (0.1 mM), or NE (0.1 mM) +butoxamine (0.1 mM) (β2 blocker) for 24 hours. The graph indicates the proportion of follicles containing (or lacking) pigmented melanocytes (see arrows) in the bulge or outer root sheath locations, indicating melanocyte stem cell differentiation/senescence.

Assay [5] concerns melanocyte stem cells (MeSCs). The assay can be described thus: Corticosterone feeding in drinking water. As to conditions: corticosterone elevated via feeding, 35 μg/ml in drinking water, three days.
Method: Since all stressors led to elevated corticosterone and norepinephrine in the blood, it was considered if these stress-induced circulating factors played a role in stress-induced MeSC loss.
Control mice were treated with the vehicle only. […] Mice were treated for three days (P28-P30).
Setting [6] is: topical 5 mg/kg in ethanol, 48 h before to 48 h after RTX.
The mark [7] stands for this setting: sympathetic nerve ablation, 100 mg/kg intraperitoneally daily P18 to P22.

SMILES strings stand for the structures. Read-outs that look alike come from different tables or passages of the source.

ADRB2 on MeSCs, sequence (P18762 whole entry): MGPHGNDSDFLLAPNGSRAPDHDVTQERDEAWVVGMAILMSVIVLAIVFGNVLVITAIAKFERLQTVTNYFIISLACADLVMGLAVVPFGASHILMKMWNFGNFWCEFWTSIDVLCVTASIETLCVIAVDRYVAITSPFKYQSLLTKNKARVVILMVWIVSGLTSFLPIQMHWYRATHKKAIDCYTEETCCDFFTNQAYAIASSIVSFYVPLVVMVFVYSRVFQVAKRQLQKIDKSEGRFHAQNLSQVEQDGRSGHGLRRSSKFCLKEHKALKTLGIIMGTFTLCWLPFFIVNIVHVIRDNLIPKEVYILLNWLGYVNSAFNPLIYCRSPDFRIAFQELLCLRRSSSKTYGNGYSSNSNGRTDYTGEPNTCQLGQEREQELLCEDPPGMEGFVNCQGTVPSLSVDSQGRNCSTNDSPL
Gq-DREADD, sequence (P20309 whole entry Y149C/A239G): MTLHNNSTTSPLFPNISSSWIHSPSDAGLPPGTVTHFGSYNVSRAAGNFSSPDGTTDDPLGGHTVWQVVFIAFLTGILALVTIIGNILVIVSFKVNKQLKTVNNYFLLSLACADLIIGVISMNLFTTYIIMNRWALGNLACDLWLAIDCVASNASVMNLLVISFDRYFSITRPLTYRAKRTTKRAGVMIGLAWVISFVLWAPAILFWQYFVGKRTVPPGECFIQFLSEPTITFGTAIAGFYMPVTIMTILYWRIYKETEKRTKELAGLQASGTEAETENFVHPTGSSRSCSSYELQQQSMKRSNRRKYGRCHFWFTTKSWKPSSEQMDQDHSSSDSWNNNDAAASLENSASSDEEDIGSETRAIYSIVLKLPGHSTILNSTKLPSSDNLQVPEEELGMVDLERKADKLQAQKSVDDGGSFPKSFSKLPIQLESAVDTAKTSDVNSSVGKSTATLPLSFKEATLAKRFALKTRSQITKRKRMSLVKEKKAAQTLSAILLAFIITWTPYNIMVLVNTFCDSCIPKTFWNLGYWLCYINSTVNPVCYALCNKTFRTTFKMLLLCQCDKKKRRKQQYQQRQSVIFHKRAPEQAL
Method for ADRB2 on MeSCs: To test if elevated norepinephrine was sufficient to cause hair greying in the absence of stress, norepinephrine was introduced locally to the skin via intradermal injections.
For tamoxifen treatment, tamoxifen was diluted in corn oil to a final concentration of 20 mg/ml. To induce recombination, 20 mg/kg was injected intraperitoneally once per day for 4-7 days. […] 50 μm was injected intradermally into experimental animals together with fluorescent beads at full anagen (P31˜P36). Control animals were injected with equivalent volume of vehicle (0.1% ascorbic acid in 0.9% sterile NaCl) with fluorescent beads. The injection sites were marked using water resistant ink.
(§4) For intradermal injection experiments (NE or CNO), unpigmented hairs were quantified by plucking ˜100 hairs from each injection site (marked by water resistant ink at the time of injection), and the percentage of white hairs were calculated by dividing the number of white hairs by the total number of hairs plucked.
From the text for Gq-DREADD: To determine if sympathetic nerve activation in the absence of stress is sufficient to drive MeSC loss, a chemogenetic approach was taken using the Designer Receptor Exclusively Activated by Designer Drugs (DREADDs) system [3, 4]. Gq-DREADD is an artificial Gq-protein coupled receptor activated by the inert molecule Clozapine N-Oxide (CNO) but not by endogenous ligands. Activation of Gq-DREADD leads to intracellular calcium release and neuronal firing. TH-CreER; CAG-lsl-Gq-DREADD; Rosa-mT/mG mice were generated, which allowed for artificial activation of sympathetic nerves with CNO (FIG. 3D).
Control mice were treated with the vehicle only. […] For tamoxifen treatment, tamoxifen was diluted in corn oil to a final concentration of 20 mg/ml. To induce recombination, 20 mg/kg was injected intraperitoneally once per day for 4-7 days. For mosaic induction of Tyr-CreER and TH-CreER, 20 mg/kg tamoxifen was injected intraperitoneally once per day for 3 days. […] Control animals were injected with equivalent volume of vehicle (0.1% ascorbic acid in 0.9% sterile NaCl) with fluorescent beads. The injection sites were marked using water resistant ink. […] For Induction of Gq-DREADD, 50 μl CNO (1 mg/ml in 0.9% sterile saline) was injected intradermally into experimental animals together with fluorescent beads at full anagen (P31˜P36). Control animals were injected with equivalent volume of vehicle (0.9% sterile saline) together with fluorescent beads.
as §4

With `O=C(NC1CCNCC1)c1n[nH]cc1NC(=O)c1c(Cl)cccc1Cl` [AT7519, N-(4-Piperidinyl)-4-(2,6-dichlorobenzoylamino)-1H-pyrazole-3-carboxamide], the “MeSC preservation in RTX-injected animals” value in [1] was “preserved in the niche”. The “MeSC quiescence in RTX-injected animals” value in assay [2] is given as “remained quiescent”. Besides, the “effect on RTX-induced hair greying” value in the assay with C57BL/6J mice (setting [6]) is reported as “inhibits RTX-induced hair greying”. Besides, in the assay on mature melanocytes, the “proliferation of cells in the hair bulb” value is recorded as “remained largely normal”.

As for `C[N+]1([O-])CCN(C2=Nc3cc(Cl)ccc3Nc3ccccc32)CC1` [CNO, Clozapine N-Oxide], at Gq-DREADD (TH-CreER, Gq-DREADD mice), the “hair greying at CNO injection sites” value is “led to loss of MeSCs and hair greying at the sites where CNO was injected”; the “loss of MeSCs at CNO injection sites” value is given as “led to loss of MeSCs”. Also, on Gq-DREADD (low dose of tamoxifen), the “MeSC loss with mosaic TH-CreER activation” value is recorded as “resulted in MeSC loss only in hair follicles innervated by DREADD-positive nerve fibres”. The “c-FOS activation in sympathetic ganglia” value with sympathetic neurons is on record as “induced c-FOS activation in sympathetic ganglia”.

As to `N=C(N)NCCN1CCCCCCC1` [guanethidine], the “effect on MeSC loss upon RTX injection” value in assay [1] (mouse, in vivo) is “suppressed hair greying and MeSC loss”.

Take `NC[C@H](O)c1ccc(O)c(O)c1` [norepinephrine]: in the assay with CREB/ATF1, the “phosphorylation/activation of CREB/ATF1” value is on record as “induces transient phosphorylation/activation of CREB/ATF1”. Further, the “MeSCs positive for Phospho-Histone H3” value in assay [2] (within 24 hours after injection, full anagen) is on record as “about 50%”. Besides, the “hair greying at injection sites” value is “promoted hair greying at the injection sites” on ADRB2 on MeSCs (HFSC-specific adrb2 knockout mice); “failed to cause hair greying” at ADRB2 on MeSCs (MeSC-specific adrb2 knockout mice); “promoted hair greying at the injection sites” on ADRB2 on MeSCs (wild type mice, absence of stress). Moreover, the “expression of proliferation and differentiation genes” value in assay [3] (cultured human melanocyte cells, NE 10 uM) is “rapid induction of proliferation genes like Cdk2, and differentiation genes like Mitf and Tyr”. Further, the “expression of MITF and MITF target genes” value in [3] (cultured primary human melanocytes) is “induces MITF and multiple MITF target genes”. Further, the “active caspase-3 or TUNEL signals in MeSCs” value in assay [4] (before MeSC depletion from the niche, 1 day after injection) is on record as “failed to detect active caspase-3 or TUNEL signals”. Besides, in [4] (following injection), the “gamma-H2AX foci (DNA damage) in MeSCs” value is “failure to detect gamma-H2AX foci”. Moreover, the “melanocyte stem cell pigmentation in human hair follicles” value in the assay on human hair follicles (norepinephrine 0.1 mM) is “heavy norepinephrine-induced melanocyte stem cell pigmentation”. The “proliferation or apoptosis in mature melanocytes” value in the assay with mature melanocytes (after injection) is recorded as “no changes in proliferation or apoptosis”.

`COc1ccc(OC)c(C(O)C(C)NC(C)(C)C)c1` (centres unmarked) [butoxamine]: in the assay with human hair follicles (NE 0.1 mM + butoxamine 0.1 mM, follicles of person), the “effect on norepinephrine-induced melanocyte pigmentation/senescence” value is recorded as “prevents norepinephrine-induced melanocyte pigmentation/senescence”.

As for `C[C@]12C[C@H](O)[C@H]3[C@@H](CCC4=CC(=O)CC[C@@]43C)[C@@H]1CC[C@@H]2C(=O)CO` [corticosterone], in assay [5], the “changes in MeSCs” value was “no changes in MeSCs or hair pigmentation” and the “changes in hair pigmentation” value is on record as “no changes in MeSCs or hair pigmentation”.

In the case of `CN1CC[C@H](c2c(O)cc(O)c3c(=O)cc(-c4ccccc4Cl)oc23)[C@H](O)C1` [Flavopiridol], in assay [1], the “MeSC preservation in RTX-injected animals” value was “preserved in the niche”. Besides, the “MeSC quiescence in RTX-injected animals” value in assay [2] is listed as “remained quiescent”. In addition, the “effect on RTX-induced hair greying” value in the assay on C57BL/6J mice (setting [6]) is reported as “inhibits RTX-induced hair greying”. For the same compound, the “proliferation of cells in the hair bulb” value in the assay with mature melanocytes is reported as “remained largely normal”.

Turning to `NCCc1cc(O)c(O)cc1O` [6-OHDA, 6-hydroxy dopamine], the “effect on RTX-induced MeSC loss” value in [1] (setting [7]) is “blocked RTX-induced hair greying and MeSC loss”. In addition, the “effect on RTX-induced hair greying” value with C57BL/6J mice (setting [7]) is recorded as “blocked RTX-induced hair greying”.
